# Assay results published in the supplement of paper PMC10307832.
# Tests used:
# Test in all cases: relative viability (nuclei count vs DMSO), 5 days (fraction); higher = more cells survive
# Avagacestat + Olaparib = compound: NC(=O)[C@@H](CCC(F)(F)F)N(Cc1ccc(-c2ncon2)cc1F)S(=O)(=O)c1ccc(Cl)cc1 [Avagacestat] + O=C(c1cc(Cc2n[nH]c(=O)c3ccccc23)ccc1F)N1CCN(C(=O)C2CC2)CC1 [Olaparib] (partner 8 µM)
# Outline: (§1)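 Medians of duplicate plates are given as relative viability. That measure is the nuclei count in treated wells divided by the count in vehicle wells. Counts were taken on 4× images of lung cancer cell lines in 1536-well plates, 5 days after pin-tool dosing the day after seeding with one drug alone or a fixed anchor-drug dose plus five library-drug doses (not always all listed) in √10 steps.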
# Avagacestat + Phenformin = compound: NC(=O)[C@@H](CCC(F)(F)F)N(Cc1ccc(-c2ncon2)cc1F)S(=O)(=O)c1ccc(Cl)cc1 [Avagacestat] + N=C(N)NC(=N)NCCc1ccccc1 [Phenformin] (partner 250 µM)
# Outline: as §1
# Avagacestat + Lapatinib = compound: NC(=O)[C@@H](CCC(F)(F)F)N(Cc1ccc(-c2ncon2)cc1F)S(=O)(=O)c1ccc(Cl)cc1 [Avagacestat] + CS(=O)(=O)CCNCc1ccc(-c2ccc3ncnc(Nc4ccc(OCc5cccc(F)c5)c(Cl)c4)c3c2)o1 [Lapatinib] (partner 2 µM)
# Outline: as §1
# Avagacestat + Trametinib = compound: NC(=O)[C@@H](CCC(F)(F)F)N(Cc1ccc(-c2ncon2)cc1F)S(=O)(=O)c1ccc(Cl)cc1 [Avagacestat] + CC(=O)Nc1cccc(-n2c(=O)n(C3CC3)c(=O)c3c(Nc4ccc(I)cc4F)n(C)c(=O)c(C)c32)c1 [Trametinib] (partner 0.02 µM)
# Outline: as §1
Cell Line,relative viability (Avagacestat + Olaparib; first compound 0.08 µM),relative viability (Avagacestat + Olaparib; first compound 0.253 µM),relative viability (Avagacestat + Olaparib; first compound 0.8 µM),relative viability (Avagacestat + Olaparib; first compound 2.53 µM),relative viability (Avagacestat + Olaparib; first compound 8 µM),relative viability (Avagacestat + Phenformin; first compound 0.08 µM),relative viability (Avagacestat + Phenformin; first compound 0.253 µM),relative viability (Avagacestat + Phenformin; first compound 0.8 µM),relative viability (Avagacestat + Phenformin; first compound 2.53 µM),relative viability (Avagacestat + Phenformin; first compound 8 µM),relative viability (Avagacestat + Lapatinib; first compound 0.08 µM),relative viability (Avagacestat + Lapatinib; first compound 0.253 µM),relative viability (Avagacestat + Lapatinib; first compound 0.8 µM),relative viability (Avagacestat + Lapatinib; first compound 2.53 µM),relative viability (Avagacestat + Lapatinib; first compound 8 µM),relative viability (Avagacestat + Trametinib; first compound 0.08 µM),relative viability (Avagacestat + Trametinib; first compound 0.253 µM),relative viability (Avagacestat + Trametinib; first compound 0.8 µM),relative viability (Avagacestat + Trametinib; first compound 2.53 µM),relative viability (Avagacestat + Trametinib; first compound 8 µM)
201T,0.925,0.812,0.871,0.79,0.737,0.55,0.514,0.471,0.424,0.424,1.04,1.06,1.12,0.995,1.01,0.732,0.749,0.761,0.691,0.625
NCI-H358,0.704,0.559,0.655,0.596,0.562,0.357,0.352,0.391,0.323,0.325,0.418,0.438,0.571,0.469,0.427,0.14,0.114,0.129,0.127,0.119
NCI-H1651,0.219,0.188,0.179,0.19,0.19,0.321,0.343,0.358,0.293,0.354,1.11,1.03,0.883,0.762,0.672,0.884,0.93,0.838,0.842,0.813
LU99A,0.254,0.259,0.269,0.265,0.243,0.867,0.944,0.923,0.821,0.902,1.01,1.2,1.25,1.06,1.1,0.515,0.485,0.555,0.485,0.534
LC-2-ad,0.853,0.794,0.826,0.783,0.679,0.577,0.651,0.713,0.602,0.554,1.04,1.16,1.03,0.996,0.867,0.99,0.965,0.962,0.911,0.856
NCI-H1975,1.03,1.04,0.94,0.814,0.665,0.48,0.422,0.42,0.398,0.42,0.852,1.1,1.03,0.935,0.859,0.305,0.361,0.429,0.33,0.361
NCI-H322M,0.827,0.774,0.783,0.685,0.668,0.733,0.748,0.712,0.69,0.65,0.556,0.555,0.601,0.504,0.432,0.48,0.457,0.343,0.465,0.443
NCI-H1666,0.843,0.863,0.808,0.955,0.758,0.686,0.639,0.619,0.603,0.603,0.858,0.877,0.756,0.639,0.523,1.29,1.04,1.02,0.991,0.748
NCI-H1355,0.851,0.778,0.73,0.691,0.718,0.499,0.441,0.465,0.422,0.41,1.24,1.15,1.1,0.926,0.871,0.449,0.393,0.447,0.386,0.366
PC-3 [JPC-3],1.21,1.28,1.36,1.13,1.2,0.461,0.443,0.487,0.472,0.521,0.485,0.541,0.472,0.479,0.475,0.763,0.754,0.816,0.742,0.714
NCI-H650,0.399,0.524,0.403,0.427,0.412,0.484,0.456,0.461,0.524,0.41,1.2,1.04,1.03,1.1,0.835,1.02,1.06,0.988,1,1.06
UMC-11,0.387,0.698,0.356,0.385,0.389,0.36,0.352,0.364,0.341,0.321,1.17,1,1.26,1.1,0.921,0.752,0.686,0.799,0.789,0.675
NCI-H520,0.337,0.367,0.335,0.338,0.251,0.648,0.612,0.494,0.436,0.529,1.03,0.878,0.846,0.724,0.663,0.814,0.792,0.611,0.497,0.616
NCI-H727,0.735,0.875,0.698,0.745,0.788,0.684,0.489,0.778,0.421,0.613,0.939,0.875,1.19,0.876,0.671,0.443,0.452,0.387,0.434,0.499
SK-MES-1,0.905,0.772,0.88,0.667,0.646,0.739,0.827,0.721,0.635,0.606,0.476,0.496,0.531,0.444,0.423,0.564,0.567,0.522,0.515,0.494
NCI-H1915,0.264,0.28,0.257,0.249,0.227,0.396,0.396,0.368,0.412,0.357,0.965,1.12,1.12,0.988,0.949,0.29,0.305,0.254,0.3,0.252

Cell Line,relative viability (Avagacestat + Olaparib; first compound 0.08 µM),relative viability (Avagacestat + Olaparib; first compound 0.253 µM),relative viability (Avagacestat + Olaparib; first compound 0.8 µM),relative viability (Avagacestat + Olaparib; first compound 2.53 µM),relative viability (Avagacestat + Olaparib; first compound 8 µM),relative viability (Avagacestat + Phenformin; first compound 0.08 µM),relative viability (Avagacestat + Phenformin; first compound 0.253 µM),relative viability (Avagacestat + Phenformin; first compound 0.8 µM),relative viability (Avagacestat + Phenformin; first compound 2.53 µM),relative viability (Avagacestat + Phenformin; first compound 8 µM),relative viability (Avagacestat + Lapatinib; first compound 0.08 µM),relative viability (Avagacestat + Lapatinib; first compound 0.253 µM),relative viability (Avagacestat + Lapatinib; first compound 0.8 µM),relative viability (Avagacestat + Lapatinib; first compound 2.53 µM),relative viability (Avagacestat + Lapatinib; first compound 8 µM),relative viability (Avagacestat + Trametinib; first compound 0.08 µM),relative viability (Avagacestat + Trametinib; first compound 0.253 µM),relative viability (Avagacestat + Trametinib; first compound 0.8 µM),relative viability (Avagacestat + Trametinib; first compound 2.53 µM),relative viability (Avagacestat + Trametinib; first compound 8 µM)
NCI-H1437,0.804,0.743,0.696,0.667,0.543,0.382,0.378,0.342,0.266,0.287,1.07,0.972,0.878,0.69,0.602,0.518,0.668,0.575,0.398,0.436
HCC-366,0.45,0.461,0.378,0.402,0.308,0.654,0.709,0.599,0.562,0.594,1.6,1.26,1.23,1.05,1.21,0.446,0.547,0.346,0.297,0.27
NCI-H2405,0.976,0.911,0.978,0.778,0.826,0.393,0.45,0.44,0.381,0.408,1.02,1.12,1.21,0.958,1,0.687,0.69,0.548,0.508,0.554
LOU-NH91,0.964,0.983,0.966,0.914,0.926,0.708,0.652,0.862,0.717,0.754,0.816,0.788,0.831,0.692,0.776,0.877,0.801,0.839,0.765,0.765
EMC-BAC-2,0.542,0.626,0.623,0.548,0.616,0.518,0.607,0.574,0.522,0.489,0.978,0.956,1.02,0.954,0.841,0.986,1.2,1.05,0.955,1.02
NCI-H1993,1.28,1.1,1.17,1.17,0.836,0.548,0.531,0.473,0.451,0.59,0.956,0.659,0.738,0.731,0.674,0.576,0.316,0.629,0.504,0.577
BEN,1.12,1.24,1.05,0.838,1.05,0.262,0.274,0.271,0.25,0.26,0.886,0.768,0.685,0.592,0.585,1.1,1.18,1.05,0.917,1.13
NCI-H1734,0.731,0.747,0.614,0.574,0.633,0.451,0.433,0.366,0.373,0.384,1.52,1.26,1.11,1.07,1.07,0.776,0.796,0.682,0.71,0.633
NCI-H2347,0.611,0.589,0.601,0.548,0.554,0.363,0.537,0.602,0.448,0.357,0.997,0.966,1.04,0.923,0.909,0.283,0.324,0.388,0.327,0.283
NCI-H647,0.766,0.663,0.626,0.508,0.366,0.534,0.587,0.692,0.487,0.414,1.42,1.13,1.25,1.09,0.811,0.475,0.502,0.463,0.396,0.384
CAL-12T,0.73,0.715,0.773,0.782,0.83,0.721,0.578,0.662,0.614,0.403,0.836,0.859,0.833,0.747,0.699,0.407,0.417,0.418,0.413,0.443
EPLC-272H,0.939,1.04,0.905,0.783,0.635,0.309,0.321,0.321,0.306,0.328,1.1,0.963,0.883,1.15,0.997,0.309,0.295,0.316,0.333,0.248
LCLC-97TM1,0.533,0.463,0.555,0.309,0.307,0.526,0.472,0.487,0.481,0.468,0.771,1.29,0.977,0.703,0.86,0.241,0.251,0.266,0.174,0.22
NCI-H3122,0.717,0.735,0.885,0.659,0.645,0.405,0.391,0.428,,0.405,1.1,1.1,1.03,1.05,0.99,0.298,0.233,0.197,0.23,0.219
HCC-15,0.755,0.887,0.862,0.77,0.674,0.617,0.592,0.512,0.491,0.378,0.95,1.04,1.12,0.879,0.778,0.395,0.44,0.391,0.394,0.374
SK-LU-1,0.472,0.62,0.515,,0.374,0.539,0.499,0.523,0.353,0.474,0.956,0.852,0.889,,0.73,0.524,0.457,0.516,0.467,0.382
